Read-outs that look alike come from different tables or passages of the source.
How the values were obtained:
[1] = tested on: Panc-1 cells (human pancreatic carcinoma cell line); conditions: previously determined (Weisz et al., Oncogene 1999), read-out: IC50 of growth inhibition; cited from earlier work
[2] = tested on: U87 cells (human glioblastoma cell line); conditions: U-87 cells; previously determined (Blum et al., Cancer Research 2005); read-out: IC50 of growth inhibition; cited from earlier work
[3] = tested on: U87 cells (human glioblastoma cell line); assay: Inhibition of U87 cell growth (cell counting); format: cell-based; conditions: U-87 cells
Protocol: (§1) Human glioblastoma U87 cells were obtained from American Tissue Culture Collection (ATCC) and grown in Dulbecco's modified Eagle medium (DMDM) containing 10% fetal calf serum, 2 mM L-glutamine, 100 U/mL penicillin, and 100 μg/mL streptomycin. The cells were incubated at 37° C. in a humidified atmosphere of 95% air and 5% CO2. Cells were plated in 24-well plates at a density of 5000 cells per well and grown for 24 hours. The medium was then replaced by a medium containing the desired concentration of methoxymethyl S-farnesylthiosalicylic acid and 0.1% DMSO, or by a medium containing 0.1% DMSO (control). Cells were maintained in culture for 5-7 days and then counted. Data are expressed as a percentage: (number cells in drug treated culture/number cells in control×100). Experiment was performed twice in quadruplicates and means±SD are represented graphically in FIG. 2.
(§2) To establish efficacy of the newly synthesized compound FTS-MOME, Applicants prepared cell growth assays using human cancer cell lines. […]
Next, to examine the effects of FTS-MOME on U-87 cell growth (i.e., growth inhibition), the cells were incubated with and without FTS-MOME for five (5) days and the live cells were counted as a percentage of control over concentration of FTS-MOME (μM). […]

[4] = tested on: Panc-1 cells (human pancreatic carcinoma cell line); assay: Inhibition of Panc-1 cell growth (cell counting); format: cell-based
Protocol: as §1, with “Human pancreatic cancer Panc-1” for “Human glioblastoma U87”, “in drug-treated” for “in drug treated”, “in control culture×100). Experiments were” for “in control×100). Experiment was”, “FIG. 1.” for “FIG. 2.”
as §2
First, to examine the effects of FTS-MOME on panc-1 cell growth (i.e., growth inhibition), the cells were incubated with and without FTS-MOME for five (5) days and the live cells were counted as a percentage of control over concentration of FTS-MOME (μM). […]

[5] = concentration range of 6-100 μM, five days

| IC50 ([3]; Homo sapiens, U-87 MG, 120 h, incubated five days, live cells counted as percentage of control, read-out: IC50 (concentration causing 50% inhibition of cell growth)) | IC50 ([4]; Homo sapiens, 120 h, incubated five days, live cells counted as percentage of control, read-out: IC50 (concentration causing 50% inhibition of cell growth)) | SMILES | IC50 [1] | IC50 [2] | live cancer cell number [3, 5] | live cancer cell number [4, 5] |
| --- | --- | --- | --- | --- | --- | --- |
| – | – | CC(C)=CCC/C(C)=C/CC/C(C)=C/CSc1ccccc1C(=O)O [FTS, S-trans, trans-farnesylthiosalicylic acid] | 35 µM | 50 µM | – | – |
| 15 µM | 15 µM | COCOC(=O)c1ccccc1SC/C=C(\C)CC/C=C(\C)CCC=C(C)C [FTS-MOME, methoxymethyl S-farnesylthiosalicylate] | – | – | dose-dependent decrease | dose-dependent decrease |
